Source: patent US11292807B2 (OCEANS LTD., priority 2015, dated 2022)
Where two headings read alike, the source gives them in different places.

Tests used:
[1] = test system: SKOV3 (ovarian adenocarcinoma); test: CIMA assay, cell viability, SKOV3; details: for Fold change in viability AVG / In vitro activity against cancer cell lines, SKOV AVG: SKOV
Method: (§1) Stock solutions of the extracts were prepared in dimethylsulfoxide (DMSO) at 10 mg/mL and stored in 200 μl aliquots at −20° C. until analysis. This preparation ensured that the DMSO delivered to cells in culture never exceeded 1%.
(§2) Prepared extracts were assessed following chronic exposure conditions in which cells were seeded at 2×10^3 cells/well (96 well-plate) and incubated with test compounds for 72 h. Each compound was evaluated over a range of concentrations (0, 10, 25, 50 or 100 μg/ml). Cell proliferation was initially assessed using a standard colorimetric indicator of metabolic activity (CIMA) assay. In this assay, tetrazole reduction was evaluated as a measure of metabolic function that evaluates mitochondrial activity to determine the extent of cell proliferation within a culture. This assay is based on the reduction of yellow tetrazolium salt to purple formazan by mitochondrial reductases enzyme in viable cells, resulting in a color changed that confers a change in absorbance.

[2] = test system: CCD1079SK (fibroblast, noncancerous but proliferating); test: CIMA assay, cell viability, CCD1079SK; details: CCD
Method: as §1, §2

[3] = CIMA assay, cell viability, CCD1079SK; details: human, Average cell viability, CCD
Method: as §1, §2

MDA-MB [4] = test: cells; details: Homo sapiens, read-out: Average cell viability, MDA-MB
MDA-MB [5] = details: MDA-MB
[6] = test system: U373 (glioblastoma-astrocytoma); test: CIMA assay, cell viability, U373; details: for Fold change in viability AVG / In vitro activity against cancer cell lines, U373 AVG: U373
Method: as §1, §2

A549 (lung carcinoma) = test: CIMA assay (colorimetric indicator of metabolic activity), cell viability, A549; details: for Fold change in viability AVG / In vitro activity against cancer cell lines, A549 AVG: A549
Method: as §1, §2

PC3 = test: CIMA assay, cell viability, PC3; details: for Fold change in viability AVG / In vitro activity against cancer cell lines, PC3 AVG: PC3
[7] = test system: THP-1 (acute monocytic leukemia); test: CIMA assay, cell viability, THP-1; details: for Fold change in viability AVG / In vitro activity against cancer cell lines, THP-1 AVG: THP-1

CCCCCCCCCCCCCCCC(=O)OCC(COC1OC(CO)C(O)C(O)C1O)OC(=O)CCCCCCCCCCCCC (centres unmarked) [Compound 16, MGDG C16:0/C14:0]
viability at 1 µg/mL ([1]; Homo sapiens, SK-OV-3, read-out: Average cell viability, SKOV, 1 ug/mL): 102% | viability at 10 µg/mL ([1]; Homo sapiens, SK-OV-3, read-out: Average cell viability, SKOV, 10 ug/mL): 95% | viability at 50 µg/mL ([1]; Homo sapiens, SK-OV-3, read-out: Average cell viability, SKOV, 50 ug/mL): 83% | viability at 100 µg/mL ([1]; Homo sapiens, SK-OV-3, read-out: Average cell viability, SKOV, 100 ug/mL): 68% | Fold change in viability AVG ([1]; 1 ug/mL): 1.09 | In vitro activity against cancer cell lines, SKOV AVG ([1]; 1 ug/mL): 1.09 | Fold change in viability AVG ([1]; 10 ug/mL): 1.02 | In vitro activity against cancer cell lines, SKOV AVG ([1]; 10 ug/mL): 1.02 | Fold change in viability AVG ([1]; 50 ug/mL): 0.90 | In vitro activity against cancer cell lines, SKOV AVG ([1]; 50 ug/mL): 0.90 | Fold change in viability AVG ([1]; 100 ug/mL): 0.74 | In vitro activity against cancer cell lines, SKOV AVG ([1]; 100 ug/mL): 0.74 | Fold change in viability AVG ([2]; 1 ug/mL): 1.16 | Fold change in viability AVG ([2]; 10 ug/mL): 1.08 | Fold change in viability AVG ([2]; 50 ug/mL): 0.48 | Fold change in viability AVG ([2]; 100 ug/mL): 0.21 | viability at 72 h, 1 ug/mL ([3]; CCD1079SK fibroblast cells (noncancerous, proliferating), 1 ug/mL): 106% | viability at 72 h, 10 ug/mL ([3]; CCD1079SK fibroblast cells (noncancerous, proliferating), 10 ug/mL): 98% | viability at 72 h, 50 ug/mL ([3]; CCD1079SK fibroblasts (noncancerous, proliferating), 50 ug/mL): 44% | viability at 72 h, 100 ug/mL ([3]; CCD1079SK fibroblasts (noncancerous, proliferating), 100 ug/mL): 19% | viability at 1 µg/mL (MDA-MB [4]; 1 ug/mL): 99% | viability at 10 µg/mL (MDA-MB [4]; 10 ug/mL): 101% | viability at 50 µg/mL (MDA-MB [4]; 50 ug/mL): 70% | viability at 100 µg/mL (MDA-MB [4]; 100 ug/mL): 20% | Fold change in viability AVG (MDA-MB [5]; 1 ug/mL): 1.08 | In vitro activity against cancer cell lines, MDA-MB AVG (MDA-MB [5]; 1 ug/mL): 1.08 | Fold change in viability AVG (MDA-MB [5]; 10 ug/mL): 1.09 | In vitro activity against cancer cell lines, MDA-MB AVG (MDA-MB [5]; 10 ug/mL): 1.09 | Fold change in viability AVG (MDA-MB [5]; 50 ug/mL): 0.76 | In vitro activity against cancer cell lines, MDA-MB AVG (MDA-MB [5]; 50 ug/mL): 0.76 | Fold change in viability AVG (MDA-MB [5]; 100 ug/mL): 0.21 | In vitro activity against cancer cell lines, MDA-MB AVG (MDA-MB [5]; 100 ug/mL): 0.21 | viability at 1 µg/mL ([6]; Homo sapiens, U373 MG, read-out: Average cell viability, U373, 1 ug/mL): 108% | viability at 10 µg/mL ([6]; Homo sapiens, U373 MG, read-out: Average cell viability, U373, 10 ug/mL): 95% | viability at 50 µg/mL ([6]; Homo sapiens, U373 MG, read-out: Average cell viability, U373, 50 ug/mL): 48% | viability at 100 µg/mL ([6]; Homo sapiens, U373 MG, read-out: Average cell viability, U373, 100 ug/mL): 9% | Fold change in viability AVG ([6]; 1 ug/mL): 1.09 | In vitro activity against cancer cell lines, U373 AVG ([6]; 1 ug/mL): 1.09 | Fold change in viability AVG ([6]; 10 ug/mL): 0.97 | In vitro activity against cancer cell lines, U373 AVG ([6]; 10 ug/mL): 0.97 | Fold change in viability AVG ([6]; 50 ug/mL): 0.49 | In vitro activity against cancer cell lines, U373 AVG ([6]; 50 ug/mL): 0.49 | Fold change in viability AVG ([6]; 100 ug/mL): 0.09 | In vitro activity against cancer cell lines, U373 AVG ([6]; 100 ug/mL): 0.09 | Fold change in viability AVG (A549 (lung carcinoma); 1 ug/mL): 1.13 | In vitro activity against cancer cell lines, A549 AVG (A549 (lung carcinoma); 1 ug/mL): 1.13 | Fold change in viability AVG (A549 (lung carcinoma); 10 ug/mL): 1.16 | In vitro activity against cancer cell lines, A549 AVG (A549 (lung carcinoma); 10 ug/mL): 1.16 | Fold change in viability AVG (A549 (lung carcinoma); 50 ug/mL): 0.99 | In vitro activity against cancer cell lines, A549 AVG (A549 (lung carcinoma); 50 ug/mL): 0.99 | Fold change in viability AVG (A549 (lung carcinoma); 100 ug/mL): 0.60 | In vitro activity against cancer cell lines, A549 AVG (A549 (lung carcinoma); 100 ug/mL): 0.60 | viability at 1 µg/mL (A549 (lung carcinoma); Homo sapiens, A549, read-out: Average cell viability, A549, 1 ug/mL): 97% | viability at 10 µg/mL (A549 (lung carcinoma); Homo sapiens, A549, read-out: Average cell viability, A549, 10 ug/mL): 99% | viability at 50 µg/mL (A549 (lung carcinoma); Homo sapiens, A549, read-out: Average cell viability, A549, 50 ug/mL): 85% | viability at 100 µg/mL (A549 (lung carcinoma); Homo sapiens, A549, read-out: Average cell viability, A549, 100 ug/mL): 52% | viability at 1 µg/mL (PC3; Homo sapiens, PC-3, read-out: Average cell viability, PC3, 1 ug/mL): 100% | viability at 10 µg/mL (PC3; Homo sapiens, PC-3, read-out: Average cell viability, PC3, 10 ug/mL): 96% | viability at 50 µg/mL (PC3; Homo sapiens, PC-3, read-out: Average cell viability, PC3, 50 ug/mL): 72% | viability at 100 µg/mL (PC3; Homo sapiens, PC-3, read-out: Average cell viability, PC3, 100 ug/mL): 9% | Fold change in viability AVG (PC3; 1 ug/mL): 1.04 | In vitro activity against cancer cell lines, PC3 AVG (PC3; 1 ug/mL): 1.04 | Fold change in viability AVG (PC3; 10 ug/mL): 0.99 | In vitro activity against cancer cell lines, PC3 AVG (PC3; 10 ug/mL): 0.99 | Fold change in viability AVG (PC3; 50 ug/mL): 0.75 | In vitro activity against cancer cell lines, PC3 AVG (PC3; 50 ug/mL): 0.75 | Fold change in viability AVG (PC3; 100 ug/mL): 0.10 | In vitro activity against cancer cell lines, PC3 AVG (PC3; 100 ug/mL): 0.10 | viability at 1 µg/mL ([7]; Homo sapiens, THP-1, read-out: Average cell viability, THP-1, 1 ug/mL): 101% | viability at 10 µg/mL ([7]; Homo sapiens, THP-1, read-out: Average cell viability, THP-1, 10 ug/mL): 101% | viability at 50 µg/mL ([7]; Homo sapiens, THP-1, read-out: Average cell viability, THP-1, 50 ug/mL): 86% | viability at 100 µg/mL ([7]; Homo sapiens, THP-1, read-out: Average cell viability, THP-1, 100 ug/mL): 46% | Fold change in viability AVG ([7]; 1 ug/mL): 1.14 | In vitro activity against cancer cell lines, THP-1 AVG ([7]; 1 ug/mL): 1.14 | Fold change in viability AVG ([7]; 10 ug/mL): 1.15 | In vitro activity against cancer cell lines, THP-1 AVG ([7]; 10 ug/mL): 1.15 | Fold change in viability AVG ([7]; 50 ug/mL): 0.75 | In vitro activity against cancer cell lines, THP-1 AVG ([7]; 50 ug/mL): 0.75 | Fold change in viability AVG ([7]; 100 ug/mL): 0.52 | In vitro activity against cancer cell lines, THP-1 AVG ([7]; 100 ug/mL): 0.52
